System: PC3 mm2 human prostate tumor xenograft
Assay: PC3 mm2 subcutaneous xenograft model
Type: in vivo, NCr nu/nu mice
Settings: for animals showing responses: PC3MM2
Procedure: The in vivo anti-tumor effect of 3ee9/MMAE was examined in 6 different human xenograft tumor models. These models were established through subcutaneous implantation of human tumor cells into female athymic NCr (nu/nu) mice (Taconic, N.Y.). […] PBS was used as a vehicle, and dosing solutions were prepared fresh daily. The dosing volume was 0.1 mL/10 g (10 mL/kg).
The length and width of each tumor were measured using an electronic caliper 2-3 times per week, and tumor weights (mg) were calculated based on the formula of [length (mm)×width (mm)^2]/2. […] Tumor growth inhibition (TGI) was calculated as (1-T/C)×100, where T=final tumor weights from a treated group after the last dose, and C=final tumor weights from the control group after the last dose. In addition, anti-tumor efficacy was measured as the incidence of responses (or responders or regressions) defined as tumors with ≦50% of their initial size. A minimum duration of 7 days is required for a response to be considered durable.
The anti-tumor activity of 3ee9/MMAE was next evaluated against human prostate (PC-3 mm2) and CRC (Colo-205) tumor xenografts. Female NCr nu/nu mice were implanted subcutaneously (s.c.) either with 5×10^6 PC3 mm2 or Colo-205 cells. Treatment was initiated when tumors were of an average size of approximately 125-150 mg. The general health of mice was monitored and recorded daily. Tumor dimensions and body weights were recorded twice a week starting with the first day of treatment.
In the PC3 mm2 and Colo-205 studies, 3ee9/MMAE was administered intravenously (i.v.) once every 4th day for a total of 3 injections (Q4Dx3) at doses of 1, 3, 10 and 30 mg/kg and 1.25, 2.5, 5 and 10 mg/kg, respectively.

Substance: 3ee9/MMAE: human anti-MN IgG1 antibody 3ee9 conjugated to Monomethylauristatin E (MMAE)
- anti-tumor effects (PC3-mm2 human prostate xenograft model): anti-tumor effects were seen
- animals showing responses (3 mg/kg): 20%
- animals showing responses (10 and 30 mg/kg i.v. Q4Dx3): 100%
- tolerability (PC3 mm2 (1, 3, 10, 30 mg/kg) and Colo-205 (1.25, 2.5, 5, 10 mg/kg) studies, i.v. Q4Dx3): well tolerated at all doses evaluated
